Where “and” joins values, the source holds several entries; their conditions need not be identical. Equal entries are not always repeated.
Legend:
[1] = system: firefly luciferase (Fluc) gene with UAG nonsense codon at position 109 in HeLa cells; experiment: Firefly luciferase readthrough assay, UAG PTC construct; type: cell-based, human
[2] = system: nonsense-mediated mRNA decay (NMD) in Calu-6 cells; experiment: NMD efficiency: p53 mRNA / GAPDH mRNA by RT-PCR; type: cell-based, human; settings: 24 h, both tested concentrations
Description: Source data are provided as a Source Data file.
Total RNA was purified from Calu-6 cells after 24 h of treatment.
(§1) RNA was purified using RNazol (MRC) according to the manufacturer’s instructions. 1/5 of the RNA preparation was used for reverse-transcription (RT) PCR (RT-PCR) using Superscript II (Life Technologies) for 2 h at 42 °C in the presence of random hexamers. The resulting cDNAs were PCR amplified in the presence of dCTP(α^33P) (Perkin Elmer) with the following primers: GAPDH mRNA (sense: 5′-[…]-3′; antisense: 5′-[…]-3′), p53 mRNA (sense: 5′-[…]-3′; antisense: 5′-[…]-3′), p21 mRNA (sense: 5′-[…]-3′; antisense: 5′-[…]-3′). PCR products were quantified with Personal Molecular Imager and QuantityOne quantification software (Bio-Rad).

[3] = system: p53 target gene p21 in Calu-6 cells; experiment: p21 mRNA level by quantitative RT-PCR, Calu-6; type: cell-based, human
Description: (§2) The three leftmost lanes show twofold serial dilutions of untreated HeLa cell extract. The molecular weight is indicated to the left of each gel. b Schematic representation of the construct used to measure the function of p53. The construct carries a cDNA encoding the firefly luciferase under a promoter having two p53-responsive elements (underlined). […] The level of p21 mRNA is related to the amount of functional p53 protein synthesized in the cell. The results presented in panels b and c are representative of at least two independent experiments., p-values (p) were calculated using Student’s t-test. Source data are provided as a Source Data file.
(§3) Although DAP clearly promoted the synthesis of full-length proteins from UGA-nonsense-mutation-containing mRNAs, it was necessary to ascertain that the readthrough protein was functional. […] The first involved measuring the transcriptional activity of the p53 readthrough protein in Calu-6 cells transfected with an expression vector carrying the cDNA encoding firefly luciferase under the control of a promoter with two p53-responsive elements (Fig. 2b)[33]. Upon DMSO treatment, only basal luciferase activity was detected, reflecting promoter leakage (Fig. 2c). […] The second assay used the p53 target gene p21 (ref. [44]).
as §1

[4] = system: firefly luciferase (Fluc) gene with UAA nonsense codon at position 109 in HeLa cells; experiment: Firefly luciferase readthrough assay, UAA PTC construct; type: cell-based, human
[5] = system: p53 readthrough protein in Calu-6 cells; experiment: p53 function: luciferase under promoter with two p53-responsive elements, Calu-6; type: cell-based, human
Description: as §2, §3

[6] = system: Calu-6 cell tumors in nude mice; experiment: In vivo established Calu-6 tumors: tumor size and p53 western blot; set-up: species or system mouse; settings: DAP for 1 week after tumor size about 0.4 cm^3
[7] = system: firefly luciferase (Fluc) gene with UGA nonsense codon at position 109 in HeLa cells; experiment: Firefly luciferase readthrough assay, UGA PTC construct; type: cell-based, human
Description: To identify the compounds responsible for this activity, a semi-preparative HPLC fractionation protocol was used. […] (Fig. 1b). DMSO and G418 were used, respectively, as a negative and a positive control.
The value of each luciferase measurement is presented in the Source Data File. All data shown in c, d are representative of two independent experiments. Source data are provided as a Source Data file.
HeLa cells were transfected with the FLuc-int-UGA construct using lipofectamine 3000 (Life technologies) according to the manufacturer’s recommendations. […] Steadylite plus luciferase substrate (Perkin Elmer, Waltham, MA, USA) was then added to each well before measuring the visible light from each well for 10 s with a Tristar luminometer (Berthold technologies, Versailles, France). The plate was read twice and the reported values are averages of the two reads.

[8] = DAP 3.75µM, average of 2 experiments
[9] = DAP 37.5µM, average of 2 experiments

Structure (SMILES): Nc1nc(N)c2[nH]cnc2n1 [DAP, 2,6-diaminopurine]
- Luciferase activity, UAG PTC [1, 8]: 366.5±43 and 366.5
- Luciferase activity, UAG PTC ([1]; DAP 3.75µM, experiment 1): 336
- Luciferase activity, UAG PTC ([1]; DAP 3.75µM, experiment 2): 397
- Luciferase activity, UAG PTC [1, 9]: 451.5±145 and 451.5
- Luciferase activity, UAG PTC ([1]; DAP 37.5µM, experiment 1): 349
- Luciferase activity, UAG PTC ([1]; DAP 37.5µM, experiment 2): 554
- NMD inhibition, in words [2]: failed to inhibit NMD significantly
- Level of endogenous p21 mRNA, in words [3]: increase significantly
- Level of p21 mRNA (DMSO = 1) ([3]; 6.25µM, average): 1.751
- Level of p21 mRNA (DMSO = 1) ([3]; 6.25µM, experiment 1): 2.112
- Level of p21 mRNA (DMSO = 1) ([3]; 6.25µM, experiment 2): 1.8
- Level of p21 mRNA (DMSO = 1) ([3]; 25µM, average): 2.148
- Level of p21 mRNA (DMSO = 1) ([3]; 25µM, experiment 1): 1.8674
- Level of p21 mRNA (DMSO = 1) ([3]; 25µM, experiment 2): 2.071
- Level of p21 mRNA (DMSO = 1) ([3]; 25µM, experiment 3): 2.507
- Luciferase activity, UAA PTC [4, 8]: 370.75±86 and 370.75
- Luciferase activity, UAA PTC ([4]; DAP 3.75µM, experiment 1): 310
- Luciferase activity, UAA PTC ([4]; DAP 3.75µM, experiment 2): 431.5
- Luciferase activity, UAA PTC [4, 9]: 610.75±408 and 610.75
- Luciferase activity, UAA PTC ([4]; DAP 37.5µM, experiment 1): 322.5
- Luciferase activity, UAA PTC ([4]; DAP 37.5µM, experiment 2): 899
- Luciferase activity under p53-responsive promoter, in words [5]: significantly increased
- Luciferase activity, p53-responsive promoter construct (DMSO = 1) ([5]; 6.25µM, average): 1.454
- Luciferase activity, p53-responsive promoter construct (DMSO = 1) ([5]; 6.25µM, experiment 1): 1.606
- Luciferase activity, p53-responsive promoter construct (DMSO = 1) ([5]; 6.25µM, experiment 2): 1.415
- Luciferase activity, p53-responsive promoter construct (DMSO = 1) ([5]; 6.25µM, experiment 3): 1.341
- Luciferase activity, p53-responsive promoter construct (DMSO = 1) ([5]; 25µM, average): 2.545
- Luciferase activity, p53-responsive promoter construct (DMSO = 1) ([5]; 25µM, experiment 1): 2.235
- Luciferase activity, p53-responsive promoter construct (DMSO = 1) ([5]; 25µM, experiment 2): 2.893
- Luciferase activity, p53-responsive promoter construct (DMSO = 1) ([5]; 25µM, experiment 3): 2.507
- p53 protein in tumors (western blot) [6]: detected in tumors isolated from DAP-fed
- Luciferase activity, UGA PTC, dose response ([7]; 0.39µM, Exp. 1): 1186.95
- Luciferase activity, UGA PTC, dose response ([7]; 0.39µM, Exp. 2): 737.25
- Luciferase activity, UGA PTC, dose response ([7]; 0.39µM, average): 962±318 and 962.101
- Luciferase activity, UGA PTC, dose response ([7]; 0.78µM, Exp. 1): 1503.98
- Luciferase activity, UGA PTC, dose response ([7]; 0.78µM, Exp. 2): 977.5
- Luciferase activity, UGA PTC, dose response ([7]; 0.78µM, average): 1241±372 and 1240.74
- Luciferase activity, UGA PTC, dose response ([7]; 1.56µM, Exp. 1): 2085.73
- Luciferase activity, UGA PTC, dose response ([7]; 1.56µM, Exp. 2): 1374.25
- Luciferase activity, UGA PTC, dose response ([7]; 1.56µM, average): 1730±503 and 1729.99
- Luciferase activity, UGA PTC, dose response ([7]; 6.25µM, Exp. 1): 7245.46
- Luciferase activity, UGA PTC, dose response ([7]; 6.25µM, Exp. 2): 4897.5
- Luciferase activity, UGA PTC, dose response ([7]; 6.25µM, average): 6071±1660 and 6071.48
- Luciferase activity, UGA PTC, dose response ([7]; 25µM, Exp. 1): 48084
- Luciferase activity, UGA PTC, dose response ([7]; 25µM, Exp. 2): 33252.2
- Luciferase activity, UGA PTC, dose response ([7]; 25µM, average): 40668±10487 and 40668.1
- Luciferase activity, UGA PTC, dose response ([7]; 100µM, Exp. 1): 351175
- Luciferase activity, UGA PTC, dose response ([7]; 100µM, Exp. 2): 246890
- Luciferase activity, UGA PTC, dose response ([7]; 100µM, average): 299032±73740 and 299033
- Luciferase activity, UGA PTC, dose response ([7]; 300µM, Exp. 1): 257964
- Luciferase activity, UGA PTC, dose response ([7]; 300µM, Exp. 2): 190894
- Luciferase activity, UGA PTC, dose response ([7]; 300µM, average): 224429±47425 and 224429
- Luciferase activity, UGA PTC, dose response ([7]; 600µM, Exp. 1): 134395
- Luciferase activity, UGA PTC, dose response ([7]; 600µM, Exp. 2): 97365.8
- Luciferase activity, UGA PTC, dose response ([7]; 600µM, average): 115880±26184 and 115881
- Luciferase activity, UGA PTC [7, 8]: 20599.75±1015 and 20599.8
- Luciferase activity, UGA PTC ([7]; DAP 3.75µM, experiment 1): 19882
- Luciferase activity, UGA PTC ([7]; DAP 3.75µM, experiment 2): 21317.5
- Luciferase activity, UGA PTC [7, 9]: 35939.75±1176 and 35939.8
- Luciferase activity, UGA PTC ([7]; DAP 37.5µM, experiment 1): 36771
- Luciferase activity, UGA PTC ([7]; DAP 37.5µM, experiment 2): 35108.5
- Concentration of maximal efficacy, UGA readthrough (luciferase) ([7]; Fig. 1D, peer review file): 100 µM
- Correction of the UGA nonsense mutation (luciferase activity), in words ([7]; Fig. 1c): exclusive correction of the UGA nonsense mutation
- EC50 ([7]; Homo sapiens, Fig. 1D, authors' reply in peer review file, removed from final text): ~50 µM

From paper PMC7083880 (Nature Communications, 2020)
